Experiment [1] relates to RKN cells (KRAS G12V). The experiment is described as follows: Cell-based pERK HTRF assay in RKN cells (Biological Example 5). On the procedure: Biological Example 5: Cell-based PERK HTRF assay in AsPC-1, SW1900, HPAC, Capan-2, RKN, H358, HCT116, KP-2, H1573, A549, MKN1, and HT1080 cells
The inhibition of ERK phosphorylation, as measured using the HTRF Advanced Phospho-ERK 1/2 (Thr202/Tyr204) Detection Assay kit (Perkin Elmer), was used to determine the effectiveness of test compounds in disrupting KRAS-driven protein/effector signaling in cells.
On day 1, cells were seeded into 96-well plates at 2.5×10^4 cells/well in 100 μL of complete growth media supplemented with 10% fetal bovine serum (FBS) and incubated at 37° C., in the presence of 5% CO2.
On day 2, cells were treated with compounds diluted in DMSO at 0.25% final DMSO concentration. Compounds were dosed in a 9-point concentration curve with three-fold dilution between concentrations. Cells were incubated in the presence of compound for two hours at 37° C. Following this treatment period, cells were harvested by aspirating the media, adding 40 μL of kit-supplied 1x lysis buffer per well, and shaking for 30 minutes at 250 rpm at room temperature.
Following cell lysis, samples were homogenized by pipetting up and down twenty times and 16 μL of cell lysate per well was transferred from the 96-well cell culture plate to two wells of a 384-well detection plate. A complete detection buffer was prepared by diluting D2 and Eu Cryptate antibodies 1:20 in kit-provided detection solution, 4 μL of complete detection buffer was then added to each well with lysate. Plates were incubated with gentle rocking for 24 hours at 4° C.
Following this incubation period, plates were centrifuged at 500×g for one minute and analyzed on a CLARIOstar plate reader. Data was imported into Microsoft Excel and the signal from the 665 nm channel was divided by the signal from the 620 nm channel. % pERK was calculated as: […]
Data was imported to the Prism software package (Graphpad) and EC50 values were calculated using the log (inhibitor) vs, response—variable slopc (Four parameters) model.
(TR-FRET usually uses a lanthanide donor and a delayed reading to cut background.)

The subject of experiment [2] is GP2d cells (KRAS G12D). The experiment is described as follows: Cell-based pERK HTRF assay in GP2d cell (Biological Example 2). The conditions noted are these: GP2d (KRAS G12D) cells. The method in brief: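 Phospho-ERK is measured by HTRF following a 60 min compound exposure at 0.25% DMSO, with a 9-point half-log curve topping at 1 μM or 100 nM.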
For experiment [3], the target named is T1, Avi-KRAS G12D (2-169) GTP/RAF1 RBD-3xFLAG (51-131) (Homo sapiens, UniProt P01116, G12D).
T1 construct: Avi-KRAS G12D (2-169)
T1 sequence (P01116 2-169 isoform P01116-2 G12D): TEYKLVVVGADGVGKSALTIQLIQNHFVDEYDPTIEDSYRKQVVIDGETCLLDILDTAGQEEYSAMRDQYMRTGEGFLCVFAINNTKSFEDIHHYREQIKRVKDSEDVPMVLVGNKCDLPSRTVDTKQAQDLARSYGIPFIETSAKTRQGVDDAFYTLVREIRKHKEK
The experiment can be described thus: Raf1-KRAS G12D-GTP disruption HTRF assay (Biological Example 3). The conditions noted are these: KRAS G12D, GTP-loaded. It is filed as binding. The method, boiled down:
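50 nM Avi-KRAS (2-169) GTP/RAF1 RBD complex; 75 nM RBD-Avi; pH 7.5 Tris buffer, 10% DMSO; cpd 30 μM top, 3x, 10 pts; 1 h RT, 700 rpm; HTRF, % of DMSO.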

Turning to `CCN(c1nc(OC[C@@]23CCCN2C[C@H](F)C3)nc2c(F)c(-c3ccc(F)c4sc(N)c(C#N)c34)c(C(F)(F)F)cc12)[C@H]1CCN(C(=O)N2CC(F)C2)C1` (atropisomer, axis not shown) [Compound 606], the IC50 is ≤ 100 nM in experiment [1]; < 100 nM in experiment [2] (GP2d); < 100 nM in experiment [2] (GP2d, pERK HTRF, class symbols); ≤ 100 nM in experiment [3].

For `CCN(c1nc(OC[C@@]23CCCN2C[C@H](F)C3)nc2c(F)c(-c3ccc(F)c4sc(N)c(C#N)c34)c(C(F)(F)F)cc12)[C@H]1C[C@@H](C)N(C(=O)C2COC2)C1` (atropisomer, axis not shown) [Compound 586], the IC50 was ≤ 100 nM in experiment [1]; < 100 nM in experiment [2] (GP2d); < 100 nM in experiment [2] (GP2d, pERK HTRF, class symbols); 100 to 1000 nM in experiment [3].

With `CCN(c1nc(OC[C@@]23CCCN2C[C@H](F)C3)nc2c(F)c(-c3ccc(F)c4sc(N)c(C#N)c34)c(C(F)(F)F)cc12)[C@H]1CCN(C(=O)C2CC2)[C@@H]1C` (atropisomer, axis not shown) [Compound 579], the IC50 in experiment [1] is ≤ 100 nM; in experiment [2] (GP2d), < 100 nM; in experiment [2] (GP2d, pERK HTRF, class symbols), < 100 nM; in experiment [3] it was ≤ 100 nM.

`Cc1c(C(=O)N(C)C)nn2c1CN(c1nc(OC[C@@]34CCCN3C[C@H](F)C4)nc3c(F)c(-c4ccc(F)c5sc(N)c(C#N)c45)c(C(F)(F)F)cc13)CC2` (atropisomer, axis not shown; (aS)) [Compound 590, 5-((S)-7-(2-amino-3-cyano-7-fluorobenzo[b]thiophen-4-yl)-8-fluoro-2-(((2R,7aS)-2-fluorotetrahydro-1H-pyrrolizin-7a(5H)-yl)methoxy)-6-(trifluoromethyl)quinazolin-4-yl)-N,N,3-trimethyl-4,5,6,7-tetrahydropyrazolo[1,5-a]pyrazine-2-carboxamide]: the concentration for half-maximal inhibition (IC50) in experiment [1] is ≤ 100 nM; in experiment [2], < 100 nM; in experiment [2] (GP2d, pERK HTRF, class symbols) it was < 100 nM; in experiment [3] it was 100 to 1000 nM.

`CCN(c1nc(OC[C@@]23CCCN2C[C@H](F)C3)nc2c(F)c(-c3ccc(F)c4sc(N)c(C#N)c34)c(C(F)(F)F)cc12)[C@H]1C[C@H](C)N(C(=O)OC)C1` (atropisomer, axis not shown) [Compound 704]: the IC50 in experiment [1] is ≤ 100 nM; in experiment [2] (GP2d), < 100 nM; in experiment [2] (GP2d, pERK HTRF, class symbols) it was < 100 nM; in experiment [3], 100 to 1000 nM.

As to `CCN(c1nc(OC[C@@]23CCCN2C[C@H](F)C3)nc2c(F)c(-c3ccc(F)c4sc(N)c(C#N)c34)c(C(F)(F)F)cc12)[C@H]1C[C@H](COC)N(C(=O)C2CC2)C1` (atropisomer, axis not shown) [Compound 696], the IC50 was ≤ 100 nM in experiment [1]; < 100 nM in experiment [2] (GP2d); < 100 nM in experiment [2] (GP2d, pERK HTRF, class symbols); ≤ 100 nM in experiment [3].

Turning to `CCN(c1nc(OCC23CCCN2CC(F)C3)nc2c(F)c(-c3ccc(F)c4sc(N)c(C#N)c34)c(C(F)(F)F)cc12)C1CC(C)N(C(=O)C2CC2(F)F)C1` (stereo not shown) [Compound 732], the IC50 was ≤ 100 nM in experiment [1]; < 100 nM in experiment [2]; < 100 nM in experiment [2] (pERK HTRF, class symbols); 100 to 1000 nM in experiment [3].

Broadly, the IC50 is the concentration at which inhibition is half-maximal. A lower IC50 goes with greater potency.

Source of the values: patent publication US20260042764A1, “COMPOSITIONS AND METHODS FOR INHIBITION OF KRAS” (TheRas, Inc., priority 2022, published 2026).
